In patent publication US10328092B2, “Methods and compositions for treatment of drug addiction” (The Royal Institution for the Advancement of Learning / …, priority 2015, dated 2019):

Test system: microglia in the nucleus accumbens
Assay: Microglia activation in nucleus accumbens (Iba1 immunostaining, morphology)
Format: in vivo, mouse
Procedure: Resting microglia have a ramified morphology but continuously survey the healthy brain and respond to a variety of activation signals by undergoing progressive morphological and functional changes (Kettenmann et al., 2011). Cocaine administration could activate microglia in the NAc, which could lead to the observed elevation of TNFα. Using the microglia marker Iba1, microglia was labeled in adult mice, 24 hours after a single cocaine injection, 24 hrs after 5 days of daily cocaine injections, or after 10 days of drug abstinence. Although no change was identified in the number of microglia in the NAc at any time point (FIG. 10E), Iba1 intensity was increased in microglia by 5 days of cocaine, and after a period of abstinence (FIG. 6C-D), indicating activation. […] In contrast to the change in microglia, no activation of astrocytes was observed, as judged by GFAP expression. […] This is consistent with the observation that TNFα is derived from microglia and not astrocytes during sensitization.
Mice (8-10 weeks) were perfused and their brains submerged overnight in 4% PFA, cryoprotected with 30% sucrose, and cut in 30 μm thick coronal slices using a cryostat. […] Images of the ventral striatum (nucleus accumbens core and shell) were acquired with a 40× or 60× objective and stacks of 25-30 optical sections (1 μm per section) of depth were Z-projected into a single window and analysed using ImageJ software (NIH).
The number of Iba1+ microglia were manually counted from 212×212 μm (60× objectives) or 317×317 μm (40× objectives) images. TNFα intensity was measured using the mean grey value of the entire image while Iba1 intensity measurements were obtained using a thresholded area to highlight only the microglia. Cell body area (μm^2) was measured based on Iba1 staining and using the freehand selection tool. […] The following parameters were analyzed for 40 microglia per group: total process length (sum of length of all processes), total process volume, process diameter and number of branch points and terminals. […]

| Molecule | Iba1 intensity in nucleus accumbens (24 hours after a single MPLA injection 10 μg, after 10 day withdrawal from cocaine) | microglia cell body area (5 d cocaine) [μm^2] | decrease of total length of microglia processes (after 5 days cocaine) [%] |
| --- | --- | --- | --- |
| monophosphoryl lipid A [MPLA] | significantly increased |  |  |
| COC(=O)[C@H]1[C@@H](OC(=O)c2ccccc2)C[C@@H]2CC[C@H]1N2C [cocaine] |  | 37.2±0.9 | 20 |
